Experimental data published in patent US6274568A, “Compounds for altering cell surface sialic acids and methods of use therefor” (priority 1999, dated 2001).

Columns and labels:
NG108-15 cells = assay: Uptake of mannosamine precursors and conversion to sialic acids (precursor pool, gangliosides, glycoproteins) in NG108-15 cells, HPLC; type: cell-based, mouse neuroblastoma/rat glioma hybrid
Method: Cells were harvested using hypertonic Ca^2+ - and Mg^2+ -free phosphate-buffered saline containing 1 mM EDTA, collected by centrifugation, and homogenized in ice-cold water using a Potter-Elvehjem glass/Teflon homogenizer. Methanol (2.6 volumes) was added, the suspension mixed and brought to ambient temperature, then chloroform (1.3 volumes, based on the original homogenate) was added and the suspension mixed vigorously. The suspension was centrifuged 30 min at 2,000×g. After collecting the supernatant, the pellet (containing precipitated proteins) was resuspended in water or concentrated ammonium hydroxide and a portion was used for protein assay (BCA, Pierce, Rockford, Ill.). The supernatant was partitioned by adjusting the chloroform-methanol-water ratio to 4:8:5.6 by addition of water, mixing thoroughly, and centrifuging as above. The upper phase was collected and a portion was subjected to reverse phase chromatography, using Sep-Pak C18 cartridges (Waters, Milford, Mass.), to isolate gangliosides (Schnaar, Methods Enzymol. 230:371, 1994).
To quantify and identify sialic acids, a portion of resolublized protein, organic/aqueous soluble pool, or reverse-phase purified gangliosides was evaporated to dryness in a 500-μl polypropylene tube and 20 μl of 0.1 M HCl/0.25 M NaCl was added. One Ampliwax bead (Perkin Elmer Corp, Foster City, Calif.) per reaction was added to block evaporation, and the sample hydrolyzed for 3 h at 80° C. Released sialic acids were analyzed by injecting an aliquot (1-10 μl) onto a Dionex high pressure liquid chromatography system (Dionex Corporation, Sunnyvale, Calif.) using a HPIC-AS6 column and a pulsed amperometric detector. Elution solutions were: A, 0.75 mM NaOH; B, 200 mM NaOH; and C, 400 mM sodium acetate in 50 mM NaOH. NeuAc and NeuPr were resolved by elution with 40% A, 50% B, 10% C for 15 min at 1 ml/min. NeuGc was resolved in separate injections using step gradient elution: 0-1.8 min, 18% A, 50% B, 32% C; 2-10 min, 40% B, 60% C. Sialic acids were identified by comparison of their elution time with those of standard NeuAc, NeuPr and NeuGc and were quantified in comparison to a standard curve of commercial NeuAc (for NeuAc and NeuPr) or NeuGc.
To confirm that the quantified peaks represented sialic acids, 10 μl of acid hydrolysates were treated with 1 μl of 1 M sodium phosphate (pH 7.2) and 10 μl of 0.1 M NaOH. Neutralized samples were incubated at 37° C. for 2 h with or without 0.9 U of N-acetylneuraminic acid aldolase (Sigma), 32 μM NADH and 0.1 μg lactate dehydrogenase. Sialic acid content in the ganglioside and glycoprotein fractions is expressed per mg of total cell protein. Precursor pool sialic acid (sialic acid plus CMP-sialic acid) was calculated by subtracting the ganglioside value from the organic/aqueous pool value, both expressed per mg of cell protein.
Sialic acid is biosynthesized from the precursor sugar N-acetylmannosamine (FIG. 2). In the present invention, sialic acids are converted on live neuronal cells from NeuAc, which is a key determinant for MAG binding, to NeuGc, which is non-permissive for MAG binding. A potential NeuGc precursor, N-glycolylmannosamine monoacetate (ManNGcMA, FIG. 1, R1 =H) was tested for its ability to generate altered sialic acids in neuronal and non-neuronal cells. N-propanoylmannosamine (ManNPr) and other N-acyl mannosamine derivatives have been used to modify glycoprotein associated sialic acids to the corresponding N-acylneuraminic acid. N-propanoyl-mannosamine (ManNPr), was used as a positive control. […] Cell pellets were fractioned into lipid associated, protein associated, and intracellular (lipid and cytoplasmic which may consist of oligosaccharide-bound, free, or CMP-activated sialic acid) sialic acids and hydrolyzed to release sialic acid. The hydrolyzed samples were then analyzed by HPLC to determine sialic acid content. […]

in vitro = conditions: ng108-15 cells
Method: Cell growth rates were determined in control cultures (.box-solid.), in cultures treated with 0.08 mM (.circle-solid.), 0.25 mM (.smallcircle.), or 1 mM (.quadrature.) ManNGcPA, and in cultures treated with 0.25 mM (.tangle-solidup.) or 1 mM (Δ) glucose pentaacetate.
NG108-15 cells were maintained in Dulbecco's modified Eagle's medium (high glucose formulation) containing 5% iron-enriched calf serum, 100 μM hypoxanthine, 16 μM thymidine, and 5 μM aminopterin. […] Both cell types were cultured at 37° C. in a humidified atmosphere of 90% air/10% CO2. For treatment with sialic acid precursors, mannosamine derivatives were diluted into the appropriate medium and filter sterilized. […] In experiments testing ManNGcPA, all cells (control and experimental) were grown in the presence of 0.5% (v/v) DMSO, the carrier for ManNGcPA.

[1] = 1 mM, 48 h, listed as ManNGc-OAc
[2] = 1 mM, longer incubation (up to 144 h)

For `CC(=O)OCC(=O)N[C@@H]1C(OC(C)=O)O[C@H](COC(C)=O)[C@@H](OC(C)=O)[C@@H]1OC(C)=O` (stereo partly shown) [ManNGcPA, N-glycolylmannosamine pentaacetate], the “conversion of ganglioside sialic acids to the NeuGc form” value (NG108-15 cells; 0.02 mM, 48 h) was roughly 50%, the “conversion to the NeuGc form relative to 5 mM ManNGcMA” value (NG108-15 cells; 0.1 mM ManNGcPA vs 5 mM ManNGcMA, 48 h) was “≈ 2 fold” and the “glycoprotein sialic acids as NeuGc” value (NG108-15 cells; 0.1 mM, 48 h) was 19.8%. For the same compound, the “intracellular sialic acid in the form of NeuGc” value (NG108-15 cells; 0.1 mM, 48 h) was 20.6%, the “total lipid associated sialic acid as NeuGc” value (NG108-15 cells; 0.1 mM, 48 h) was 17% and the “protein sialic acid, average over the experiment (mean±S.D.)” value (NG108-15 cells; 0.25 mM) was 3.8±1.2 nmol/mg protein. The “total ganglioside sialic acid, average over the experiment (mean±S.D.)” value (NG108-15 cells; 0.25 mM) was 3.2±0.7 nmol/mg total cell protein, the “glycoconjugate sialic acid in the NeuGc form” value (NG108-15 cells; 0.25 mM or 1 mM, 96 h) was greater than 70% and the “reversal of the conversion on withdrawal of the precursor” value (NG108-15 cells; 0.25 mM, 24 h of chase) was “partial reversal of the conversion”. For the same compound, the “conversion of NeuAc to NeuGc in gangliosides” value (NG108-15 cells; 0.25 mM, 48 h) was greater than 70%, the “conversion of NeuAc to NeuGc in glycoproteins” value (NG108-15 cells; 0.25 mM, 96 h, relative to >70% in gangliosides) was “a similar conversion in glycoproteins” and the “conversion from NeuAc to NeuGc (precursor pool)” value (NG108-15 cells; 1 mM, 48 h) was 82%. The “intracellular sialic acid in the form of NeuGc” value (NG108-15 cells; 1.0 mM, 48 h) was 76.6%, the “ganglioside (lipid associated) sialic acid as NeuGc” value (NG108-15 cells; [1]) was 51.5% and the “glycoprotein (protein associated) sialic acid as NeuGc” value (NG108-15 cells; [1]) was 47%. The “glycoconjugate sialic acid in the NeuGc form” value (NG108-15 cells; 1 mM, 144 h) was 80%, the “ganglioside sialic acid as NeuGc” value (NG108-15 cells; [2]) was “≈ 80%” and the “glycoprotein sialic acid as NeuGc” value (NG108-15 cells; [2]) was 60-70%. The “sialic acid precursor pool in the NeuGc form” value (NG108-15 cells; 1 mM, within 24 h (remained high up to 144 h)) was greater than 80%, the “sialic acid precursor pool size” value (NG108-15 cells; 0.1 or 1.0 mM ManNGcPA, or 5 mM ManNGcMA, 48 h) was “none of these treatments significantly altered the sialic acid precursor pool size” and the “change in lipid or protein associated sialic acid compared to DMSO treated control” value (NG108-15 cells; 0.1 or 1.0 mM, 48 h) was “no significant decrease in cell viability, or change in lipid or protein associated sialic acid”. For the same compound, the “total ganglioside sialic acid level” value (NG108-15 cells; 0.1 or 1.0 mM, 48 h) was “not significantly altered”, the “total glycoprotein sialic acid level” value (NG108-15 cells; 0.1 or 1.0 mM, 48 h) was “not significantly altered” and the “increase in potency due to peracetylation” value (NG108-15 cells; ManNGcPA vs ManNGcMA, 48 h) was 100 fold. For the same compound, the viability at 70 h, 1000 µM (in vitro) was 76%.
